Test results reported in PubChem BioAssay AID248 (DTP/NCI, 2004).
“And” between values parts separate entries of the source, which are not always exact repeats. Equal values may be shown once. Inconclusive results and toxic doses are left out. Rule as the data show it: active = T/C of 150% or more; inactive = T/C below 125%.

Tested on: L1210 leukemia ip in BDF1 mice, survival T/C
Test: NCI In Vivo Anticancer Drug Screen. Data for tumor model L1210 Leukemia (intraperitoneal) in B6D2F1 (BDF1) mice
Conditions: endpoint: mean survival time, higher = longer survival
Outline: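 Tumor cells were implanted, animals were treated, and survival was followed. The result divides the treated measurement by the vehicle-control measurement.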

[1] = dose: 25.0 mg/kg/injection, schedule: Q01DX009 (ip), vehicle: saline
[2] = dose: 12.5 mg/kg/injection, schedule: Q04DX003 (ip), vehicle: Klucel (hydroxypropylcellulose) (HPC)
[3] = dose: 25.0 mg/kg/injection, schedule: Q04DX003 (ip), vehicle: Klucel (hydroxypropylcellulose) (HPC)
[4] = dose: 50.0 mg/kg/injection, schedule: Q04DX003 (ip), vehicle: Klucel (hydroxypropylcellulose) (HPC)
[5] = dose: 100.0 mg/kg/injection, schedule: Q01DX001 (ip), vehicle: saline
[6] = dose: 200.0 mg/kg/injection, schedule: Q01DX001 (ip), vehicle: saline
[7] = dose: 400.0 mg/kg/injection, schedule: Q01DX001 (ip), vehicle: saline
[8] = dose: 100.0 mg/kg/injection, schedule: Q04DX003 (ip), vehicle: saline
[9] = dose: 200.0 mg/kg/injection, schedule: Q04DX003 (ip), vehicle: saline
[10] = dose: 100.0 mg/kg/injection, schedule: Q04DX003 (ip), vehicle: Klucel (hydroxypropylcellulose) (HPC)
[11] = dose: 12.5 mg/kg/injection, schedule: Q01DX009 (ip), vehicle: Klucel (hydroxypropylcellulose) (HPC)
[12] = dose: 25.0 mg/kg/injection, schedule: Q01DX009 (ip), vehicle: Klucel (hydroxypropylcellulose) (HPC)
[13] = dose: 100.0 mg/kg/injection, schedule: Q01DX009 (ip), vehicle: saline

Measured: T/C

COc1cc(C)c(C(=O)Oc2cc(C)c(C(=O)O)c(O)c2C)c(OC)c1C
inactive: dose: 6.25 mg/kg/injection, schedule: Q01DX009 (ip), vehicle: saline 95 % of control | dose: 12.5 mg/kg/injection, schedule: Q01DX009 (ip), vehicle: saline 98 % of control | [1] 97 % of control and 98 % of control | dose: 37.5 mg/kg/injection, schedule: Q01DX Z (ip), vehicle: saline 93 % of control | dose: 75.0 mg/kg/injection, schedule: Q01DX Z (ip), vehicle: saline 98 % of control | dose: 100.0 mg/kg/injection, schedule: Q01DX Z (ip), vehicle: saline 96 % of control | dose: 150.0 mg/kg/injection, schedule: Q01DX Z (ip), vehicle: saline 93 % of control | dose: 300.0 mg/kg/injection, schedule: Q01DX Z (ip), vehicle: saline 98 % of control

CC[N+]1(CN2CCCCC2)CCCCC1
inactive: [2] 102 % of control | [3] 96 % of control | [4] 90 % of control

Cc1ncc(C(=O)O)c2c1OC(C)(C)OC2
inactive: dose: 50.0 mg/kg/injection, schedule: Q01DX001 (ip), vehicle: saline 100 % of control | [5] 91 % of control | [6] 100 % of control | [7] 94 % of control

Cc1ccc(NC2=CC(=O)C(=O)c3ccccc32)cc1
inactive: dose: 100.0 mg/kg/injection, schedule: Q01DX001 (ip), vehicle: other 103 % of control | dose: 200.0 mg/kg/injection, schedule: Q01DX001 (ip), vehicle: other 98 % of control | dose: 400.0 mg/kg/injection, schedule: Q01DX001 (ip), vehicle: other 92 % of control

Cc1ccc(/C(C#N)=C2C=C(Br)/C(=N\O)C=C/2Cl)cc1
inactive: dose: 150.0 mg/kg/injection, schedule: Q01DX009 (ip), vehicle: saline with Tween-80 97 % of control | dose: 225.0 mg/kg/injection, schedule: Q01DX009 (ip), vehicle: saline with Tween-80 90 % of control

N#CSc1nc2ccccc2s1
inactive: dose: 6.0 mg/kg/injection, schedule: Q01DX001 (ip), vehicle: saline 88 % of control | dose: 12.0 mg/kg/injection, schedule: Q01DX001 (ip), vehicle: saline 89 % of control | dose: 25.0 mg/kg/injection, schedule: Q01DX001 (ip), vehicle: saline 98 % of control | dose: 25.0 mg/kg/injection, schedule: Q04DX003 (ip), vehicle: saline with Tween-80 92 % of control | dose: 50.0 mg/kg/injection, schedule: Q04DX003 (ip), vehicle: saline with Tween-80 91 % of control | dose: 100.0 mg/kg/injection, schedule: Q04DX003 (ip), vehicle: saline with Tween-80 96 % of control

COc1ccc(/C=C2\CN(CCC(=O)O)C(=O)C2=O)cc1
inactive: [5] 103 % of control | [8] 98 % of control | [6] 98 % of control | [9] 98 % of control | [7] 98 % of control | dose: 400.0 mg/kg/injection, schedule: Q04DX003 (ip), vehicle: saline 98 % of control

COc1c(Cl)cc(Cl)cc1Cl
inactive: dose: 100.0 mg/kg/injection, schedule: Q01DX009 (ip), vehicle: saline sonified 96 % of control | [10] 101 % of control | dose: 200.0 mg/kg/injection, schedule: Q01DX009 (ip), vehicle: saline sonified 107 % of control | dose: 200.0 mg/kg/injection, schedule: Q04DX003 (ip), vehicle: Klucel (hydroxypropylcellulose) (HPC) 98 % of control | dose: 400.0 mg/kg/injection, schedule: Q01DX009 (ip), vehicle: saline sonified 97 % of control | dose: 400.0 mg/kg/injection, schedule: Q04DX003 (ip), vehicle: Klucel (hydroxypropylcellulose) (HPC) 104 % of control

O=N[O-].O=N[O-].[Co].[NH2-].[NH2-].[NH2-].[NH2-]
inactive: dose: 100.0 mg/kg/injection, schedule: Q04DX002 (ip), vehicle: saline with Tween-80 112 % of control

O=C(NNc1ccccc1)OCCCl
inactive: [11] 95 % of control | [12] 101 % of control | dose: 50.0 mg/kg/injection, schedule: Q01DX009 (ip), vehicle: Klucel (hydroxypropylcellulose) (HPC) 107 % of control

CN(C)c1ccc(C2OC3(CCCCC3)C[N+]23CCCC3)cc1 (stereo not drawn)
inactive: dose: 100.0 mg/kg/injection, schedule: Q04DX003 (ip), vehicle: acetone 102 % of control

CC1CN(C2CC3OCC3O2)C(=O)NC1=O (stereo not drawn)
inactive: [5] 103 % of control | [6] 98 % of control | [7] 98 % of control

CC1C[N-]1.CC1C[N-]1.[Cl][Pt+2][Cl] (stereo not drawn)
inactive: [1] 102 % of control | dose: 50.0 mg/kg/injection, schedule: Q01DX009 (ip), vehicle: saline 103 % of control | dose: 50.0 mg/kg/injection, schedule: Q04DX003 (ip), vehicle: saline 95 % of control | [13] 101 % of control | [8] 98 % of control | [9] 98 % of control

COc1nc(C)c(C)n[n+]1C
inactive: dose: 75.0 mg/kg/injection, schedule: Q01DX001 (ip), vehicle: saline with Tween-80 107 % of control | dose: 150.0 mg/kg/injection, schedule: Q01DX001 (ip), vehicle: saline with Tween-80 104 % of control | dose: 300.0 mg/kg/injection, schedule: Q01DX001 (ip), vehicle: saline with Tween-80 111 % of control

CC(=O)CC(=O)C(F)(F)F.CC(=O)CC(=O)C(F)(F)F.[O]=[V]
inactive: [3] 100 % of control | [4] 107 % of control | [10] 96 % of control

Br[C](Br)(Br)[Hg][c]1ccccc1
inactive: dose: 6.0 mg/kg/injection, schedule: Q01DX009 (ip), vehicle: Klucel (hydroxypropylcellulose) (HPC) 98 % of control | [11] 93 % of control | [2] 110 % of control | [12] 87 % of control | [3] 95 % of control

Oc1ccc(-c2cc3c(O)ccc(O)c3[nH]2)cc1O
inactive: dose: 25.0 mg/kg/injection, schedule: Q04DX002 (ip), vehicle: Klucel (hydroxypropylcellulose) (HPC) 86 % of control | dose: 50.0 mg/kg/injection, schedule: Q04DX002 (ip), vehicle: Klucel (hydroxypropylcellulose) (HPC) 93 % of control | dose: 100.0 mg/kg/injection, schedule: Q04DX002 (ip), vehicle: Klucel (hydroxypropylcellulose) (HPC) 89 % of control

O=C(O)C(O)Cc1ccc(O)cc1 (stereo not drawn)
inactive: [5] 90 % of control | [6] 92 % of control | [7] 97 % of control

CCCCCCCCCCCCc1cc2ccccc2c2ccccc12
inactive: [5] 98 % of control | [6] 95 % of control | [7] 89 % of control

Cn1ccc(=O)nc1
inactive: [13] 94 % of control | dose: 200.0 mg/kg/injection, schedule: Q01DX009 (ip), vehicle: saline 103 % of control | dose: 400.0 mg/kg/injection, schedule: Q01DX009 (ip), vehicle: saline 100 % of control

CNc1nc(Cl)cc2nc(Cl)cn12
inactive: [5] 94 % of control | [6] 96 % of control | [7] 96 % of control

CC(C)C(NC(=O)OC(C)(C)C)C(=O)O (stereo not drawn)
inactive: dose: 12.5 mg/kg/injection, schedule: Q01DX009 (ip), vehicle: alcohol 106 % of control | dose: 25.0 mg/kg/injection, schedule: Q01DX009 (ip), vehicle: alcohol 109 % of control | dose: 25.0 mg/kg/injection, schedule: Q04DX003 (ip), vehicle: other 107 % of control | dose: 50.0 mg/kg/injection, schedule: Q01DX009 (ip), vehicle: alcohol 96 % of control | dose: 50.0 mg/kg/injection, schedule: Q04DX003 (ip), vehicle: other 93 % of control and 108 % of control | [5] 103 % of control | dose: 100.0 mg/kg/injection, schedule: Q01DX009 (ip), vehicle: alcohol 104 % of control | dose: 100.0 mg/kg/injection, schedule: Q04DX003 (ip), vehicle: other 94 % of control and 96 % of control | dose: 200.0 mg/kg/injection, schedule: Q01DX009 (ip), vehicle: alcohol 107 % of control | dose: 200.0 mg/kg/injection, schedule: Q04DX003 (ip), vehicle: other 101 % of control and 103 % of control
